Converted amounts (≈) assume the structure as drawn.
Tests used:
[1] = test system: 4T1; test: Antiproliferative activity against mouse 4T1 cells after 48 hrs by MTT assay; format: functional, cell-based; conditions: 4T1, 48 h
[2] = Antiproliferative activity against human HuTu 80 cells after 48 hrs by MTT assay; format: functional, cell-based; conditions: HuTu80, 48 h
[3] = Antiproliferative activity against human PANC1 cells after 48 hrs by MTT assay; format: functional, cell-based; conditions: PANC-1, 48 h
[4] = test system: HuTu80; test: Selectivity index, ratio of IC50 for HUVEC to IC50 for human HuTu 80 cells
[5] = (§1) Cytotoxicity against HEK293 cells assessed as reduction in cell survival after 48 hrs by MTT assay; format: cell-based, Homo sapiens; conditions: human, HEK293 cells
[6] = test system: HEK293; test: as §1; format: cell-based, Homo sapiens; conditions: Homo sapiens, HEK293, 48 h
[7] = test system: Mus musculus; test: Acute toxicity in Kunming mouse assessed as induction of salivation at 500 mg/kg, administered as single dose after 14 days; format: organism-based; conditions: in vivo, 336 h
[8] = test system: Mus musculus; test: Acute toxicity in Kunming mouse assessed as tremor induction at 500 mg/kg, administered as single dose after 14 days; format: organism-based; conditions: in vivo, 336 h
[9] = test system: PANC-1; test: Selectivity index, ratio of IC50 for HUVEC to IC50 for human PANC1 cells
[10] = test system: Mus musculus; test: Acute toxicity in Kunming mouse assessed as physical/abnormal changes in fur at 500 mg/kg, administered as single dose after 14 days; format: organism-based; conditions: in vivo, 336 h
[11] = test system: Mus musculus; test: Acute toxicity in Kunming mouse assessed as behavior pattern abnormality at 500 mg/kg, administered as single dose after 14 days; format: organism-based; conditions: in vivo, 336 h
[12] = test system: HEK293; test: Selectivity index, ratio of IC50 for HEK293 cells to IC50 for mouse 4T1 cells; format: functional
[13] = (§2) Cytotoxicity against HUVEC assessed as reduction in cell survival after 48 hrs by MTT assay; format: cell-based, Homo sapiens; conditions: human, HUVEC cells
[14] = test system: HUVEC; test: as §2; format: cell-based, Homo sapiens; conditions: Homo sapiens, HUVEC, 48 h
[15] = test system: Mus musculus; test: Acute toxicity in Kunming mouse assessed as physical/abnormal changes in skin at 500 mg/kg, administered as single dose after 14 days; format: organism-based; conditions: in vivo, 336 h
[16] = test system: HEK293; test: Selectivity index, ratio of IC50 for HEK293 cells to IC50 for human HuTu 80 cells; format: functional
[17] = test system: HEK293; test: Selectivity index, ratio of IC50 for HEK293 cells to IC50 for human PANC1 cells; format: functional
[18] = test system: 4T1; test: Selectivity index, ratio of IC50 for HUVEC to IC50 for mouse 4T1 cells
[19] = test system: Mus musculus; test: Acute toxicity in Kunming mouse assessed as physical/abnormal changes in eyes at 500 mg/kg, administered as single dose after 14 days; format: organism-based; conditions: in vivo, 336 h
[20] = test system: Mus musculus; test: Acute toxicity in Kunming mouse assessed as survival at 500 mg/kg, administered as single dose measured on day 14 post dose; format: organism-based; conditions: in vivo
[21] = test system: Mus musculus; test: Acute toxicity in Kunming mouse assessed as structural abnormality in liver at 500 mg/kg, administered as single dose after 14 days by hematoxylin and eosin staining based histological analysis; format: organism-based; conditions: in vivo, 336 h
[22] = test system: Mus musculus; test: Acute toxicity in Kunming mouse assessed as structural abnormality in kidney at 500 mg/kg, administered as single dose after 14 days by hematoxylin and eosin staining based histological analysis; format: organism-based; conditions: in vivo, 336 h
[23] = test system: Mus musculus; test: Acute toxicity in Kunming mouse assessed as sleep pattern abnormality at 500 mg/kg, administered as single dose after 14 days; format: organism-based; conditions: in vivo, 336 h
[24] = test system: Mus musculus; test: Acute toxicity in Kunming mouse assessed as physical/abnormal changes in mucus membrane at 500 mg/kg, administered as single dose after 14 days; format: organism-based; conditions: in vivo, 336 h

**Q.** For CC(C)(C)c1ccc(C2C(C#N)=C(N)OC3=C2C(=O)CC3)cc1 (stereo not given), which IC50 [1] is on record?
**A.** 117 µg/mL (≈ 378 µM)

**Q.** And the IC90 [1]?
**A.** 288 µg/mL (≈ 936 µM)

**Q.** And the IC50 [2]?
**A.** 103 µg/mL (≈ 334 µM)

**Q.** And the IC90 [2]?
**A.** 233 µg/mL (≈ 757 µM)

**Q.** And the IC50 [3]?
**A.** 219 µg/mL (≈ 711 µM)

**Q.** And the IC90 [3]?
**A.** 435 µg/mL (≈ 1410 µM)

**Q.** For COc1ccc(C(c2c(O)c3ccccc3oc2=O)c2c(O)c3ccccc3oc2=O)cc1, which “Ratio IC50” value [4] is on record?
**A.** 3.7

**Q.** And the IC90 at 48 h [5]?
**A.** 322 µg/mL (≈ 727 µM)

**Q.** And the IC50 [6]?
**A.** 165 µg/mL (≈ 373 µM)

**Q.** What about the Activity [7] of the same compound?
**A.** Non-toxic

**Q.** What about the Activity [8] of the same compound?
**A.** Non-toxic

**Q.** And the “Ratio IC50” value [9]?
**A.** 4.7

**Q.** And the Activity [10]?
**A.** Non-toxic

**Q.** What about the IC50 [1] of the same compound?
**A.** 85.7 µg/mL (≈ 194 µM)

**Q.** And the IC90 [1]?
**A.** 167 µg/mL (≈ 377 µM)

**Q.** And the Activity [11]?
**A.** Non-toxic

**Q.** What about the “Ratio IC50” value [12] of the same compound?
**A.** 1.9

**Q.** And the IC90 at 48 h [13]?
**A.** 363 µg/mL (≈ 821 µM)

**Q.** And the IC50 [14]?
**A.** 199 µg/mL (≈ 450 µM)

**Q.** And the Activity [15]?
**A.** Non-toxic

**Q.** What about the IC50 [2] of the same compound?
**A.** 53.8 µg/mL (≈ 122 µM)

**Q.** What about the IC90 [2] of the same compound?
**A.** 103 µg/mL (≈ 233 µM)

**Q.** What about the “Ratio IC50” value [16] of the same compound?
**A.** 3.1

**Q.** What about the “Ratio IC50” value [17] of the same compound?
**A.** 3.9

**Q.** What about the “Ratio IC50” value [18] of the same compound?
**A.** 2.3

**Q.** And the Activity [19]?
**A.** Non-toxic

**Q.** What about the Activity [20] of the same compound?
**A.** Non-toxic

**Q.** What about the Activity [21] of the same compound?
**A.** Non-toxic

**Q.** And the Activity [22]?
**A.** Non-toxic

**Q.** What about the Activity [23] of the same compound?
**A.** Non-toxic

**Q.** And the IC50 [3]?
**A.** 42.5 µg/mL (≈ 96.1 µM)

**Q.** What about the IC90 [3] of the same compound?
**A.** 82.5 µg/mL (≈ 186 µM)

**Q.** And the Activity [24]?
**A.** Non-toxic

**Q.** What does the source list for CC1(C)CC(=O)C2=C(C1)OC(N)=C(C#N)C2c1ccc(S(C)(=O)=O)cc1 (stereo not given)?
**A.** IC50 [1]: > 300 µg/mL; IC90 [1]: > 500 µg/mL; IC50 [2]: > 300 µg/mL; IC90 [2]: > 500 µg/mL; IC50 [3]: > 300 µg/mL; IC90 [3]: > 500 µg/mL

**Q.** With COc1cc(C2C(C#N)=C(N)OC3=C2C(=O)CC3)cc(OC)c1OC (stereo not given) as the compound, how does the IC50 [1] read?
**A.** 153 µg/mL (≈ 448 µM)

**Q.** And the IC90 [1]?
**A.** 365 µg/mL (≈ 1070 µM)

**Q.** What about the IC50 [2] of the same compound?
**A.** 185 µg/mL (≈ 541 µM)

**Q.** What about the IC90 [2] of the same compound?
**A.** 360 µg/mL (≈ 1050 µM)

**Q.** And the IC50 [3]?
**A.** 200 µg/mL (≈ 583 µM)

**Q.** And the IC90 [3]?
**A.** 391 µg/mL (≈ 1140 µM)

**Q.** Which results are given for COc1ccccc1C(c1c(O)c2ccccc2oc1=O)c1c(O)c2ccccc2oc1=O?
**A.** Ratio IC50 [4]: 6.7; IC90 at 48 h [5]: 282 µg/mL (≈ 638 µM); IC50 [6]: 117 µg/mL (≈ 264 µM); Activity [7]: Non-toxic; Activity [8]: Non-toxic; Ratio IC50 [9]: 1.9; Activity [10]: Non-toxic; IC50 [1]: 52.2 µg/mL (≈ 118 µM); IC90 [1]: 133 µg/mL (≈ 301 µM); Activity [11]: Non-toxic; Ratio IC50 [12]: 2.2; IC90 at 48 h [13]: 269 µg/mL (≈ 607 µM); IC50 [14]: 119 µg/mL (≈ 270 µM); Activity [15]: Non-toxic; IC50 [2]: 17.9 µg/mL (≈ 40.5 µM); IC90 [2]: 110 µg/mL (≈ 248 µM); Ratio IC50 [16]: 6.5; Ratio IC50 [17]: 1.9; Ratio IC50 [18]: 2.3; Activity [19]: Non-toxic; Activity [20]: Non-toxic; Activity [21]: Non-toxic; Activity [22]: Non-toxic; Activity [23]: Non-toxic; IC50 [3]: 62.1 µg/mL (≈ 140 µM); IC90 [3]: 110 µg/mL (≈ 249 µM); Activity [24]: Non-toxic

**Q.** With N#CC1=C(N)OC2=C(C(=O)CC2)C1c1ccc(Cl)cc1Cl (stereo not given) as the compound, how does the IC50 [1] read?
**A.** 127 µg/mL (≈ 396 µM)

**Q.** What about the IC90 [1] of the same compound?
**A.** 307 µg/mL (≈ 955 µM)

**Q.** What about the IC50 [2] of the same compound?
**A.** 150 µg/mL (≈ 466 µM)

**Q.** And the IC90 [2]?
**A.** 302 µg/mL (≈ 941 µM)

**Q.** And the IC50 [3]?
**A.** 156 µg/mL (≈ 486 µM)

**Q.** And the IC90 [3]?
**A.** 325 µg/mL (≈ 1010 µM)

**Q.** Which IC50 [1] does the source give for N#CC1=C(N)Oc2c(c(=O)oc3ccccc23)C1c1ccc(C#N)cc1 (stereo not given) here?
**A.** > 300 µg/mL

**Q.** What about the IC90 [1] of the same compound?
**A.** > 500 µg/mL

**Q.** What about the IC50 [2] of the same compound?
**A.** > 300 µg/mL

**Q.** And the IC90 [2]?
**A.** > 500 µg/mL

**Q.** What about the IC50 [3] of the same compound?
**A.** > 300 µg/mL

**Q.** And the IC90 [3]?
**A.** > 500 µg/mL

**Q.** Which IC50 [1] does the source give for CC(C)c1ccc(C2C(C#N)=C(N)Oc3c2c(=O)oc2ccccc32)cc1 (stereo not given) here?
**A.** > 300 µg/mL

**Q.** And the IC90 [1]?
**A.** > 500 µg/mL

**Q.** And the IC50 [2]?
**A.** 238 µg/mL (≈ 664 µM)

**Q.** And the IC90 [2]?
**A.** > 500 µg/mL

**Q.** And the IC50 [3]?
**A.** 256 µg/mL (≈ 715 µM)

**Q.** What about the IC90 [3] of the same compound?
**A.** > 500 µg/mL
